Assay results reported in US6488933B2, “Preparations for the treatment of T cell mediated diseases” (Yeda Research and Development Co. Ltd., priority 1995, dated 2002).

Columns and labels:
IDDM = conditions: mice, subcutaneously (sc) in an oil vehicle (IFA); cited from earlier work
autoimmune T cells = test: p277(Val^6-Val^11)-peptide treatment: spontaneous T-cell responses and autoantibodies (summary statement); assay type: in vivo, mouse; conditions: peptide in an appropriate carrier
NOD mice = test: Antibody isotypes induced by p277(Val^6-Val^11) therapy, isotype ELISA (Example 3); assay type: in vivo, mouse; conditions: NOD mice 3 months old, treated in oil, FIG. 2
Protocol: The sera of individual mice were assayed for the isotypes of their antibodies to p277(Val6-Val^11) after treatment (12-15 mice per group). The antibody isotypes were detected using an ELISA assay with isotype-specific developing antibody reagents (Southern Biotechnology Associates, Birmingham, Ala.). […] The columns in each experiment show results from equal numbers of mice; an apparent reduction in numbers of circles is caused by superimposition.

[1] = test system: T cells reactive to the p277(Val^6-Val^11); test: Cytokine profile of spleen cells of treated NOD mice, cytokine ELISA (Example 4); assay type: in vivo, mouse; conditions: spleen cells 5 weeks after treatment
Excerpt: Concanavalin A (ConA), a T-cell mitogen, was used to activate total splenic T-cells as a control.
Five weeks later, the spleens of the mice were removed and the spleen cells were pooled. […] The presence of the cytokines in the culture supernatants was quantitated by ELISA, using Pharmingen paired antibodies according to the Pharmingen cytokine ELISA protocol. Pharmingen recombinant mouse cytokines were used as standards for calibration curves. Briefly, flat-bottom 96-well microtiter plates were coated with rat anti-mouse cytokine mAbs for 18 h at 4° C., and the culture supernatants or recombinant mouse cytokines were added for 18 h at 4° C. The plates were washed, and biotinylated rat anti-mouse cytokine mAbs were added for 45 min at room temperature, then extensively washed, and avidin-alkaline phosphatase was added. The plates were washed, a chromogen substrate (p-nitrophenylphosphate) was added and samples were read at 405 nm in an ELISA reader. The concentrations of cytokines are shown as the OD readings. *P<0.01.

Substance: p12: human hsp60 positions 166-185: EEIAQVATISANGDKEIGNI
- Peptide therapy for treatment of IDDM (IDDM): effective

Substance: p32: human hsp60 positions 466-485: EIIKRTLKIPAMTIAXNAGV (EIIKRTLKIPAMTIAKNAGV)
- Peptide therapy for treatment of IDDM (IDDM): effective

Substance: p277(Val^6-Val^11): SEQ ID NO 4, hsp60 437-460 with C-442 and C-447 changed to V: VLGGGVALLRVIPALDSLTPANED
- production of autoantibodies to hsp60, to GAD and to insulin (autoimmune T cells): abolished
- spontaneous T-cell proliferative responses to epitopes of both hsp60 and GAD (autoimmune T cells): down-regulated
- spontaneous T-cell response of the treated mice to a bacterial hsp60 peptide (autoimmune T cells): remained in the TH1 mode
- TH1-type IgG2a antibodies (NOD mice): no TH1-type IgG2a antibodies induced
- isotypes of the anti-p277 antibodies developing after treatment (NOD mice): exclusively of the IgG1 and IgG2b classes
- IL-2 cytokine response to ConA ([1]; 24 h incubation with Con A, FIG. 3B): maintained
- IL-2 secretion in response to incubation with peptide p277(Val^6-Val^11) ([1]; 24 h incubation, vs control mice (PBS in Intralipid), P<0.01, FIG. 3A): significantly less
- IFNγ cytokine response to ConA ([1]; 48 h incubation with Con A, FIG. 3B): maintained
- IFNγ secretion in response to incubation with peptide p277(Val^6-Val^11) ([1]; 48 h incubation, vs control mice (PBS in Intralipid), P<0.01, FIG. 3A): significantly less

Substance: p277: human hsp60 positions 437-460: VLGGGCALLRCIPALDSLTPANED
- Peptide therapy for treatment of IDDM (IDDM): effective
